Patent US20090298878A1, “OXIME COMPOUNDS AND THE USE THEREOF” (priority 2006, published 2009)

These compounds were tested against T1, N-type calcium channel (NTCC) (Homo sapiens, UniProt Q00975) (assay: FLIPR calcium mobilization assay for N-type calcium channel (differentiated IMR32 cells)). Conditions: about 1.0 μM or less; calcium mobilization and/or electrophysiological assay.
T1 construct: host or cells: IMR32 cells differentiated with dibutyryl cAMP and bromodeoxyuridine
Format: cell-based
In short: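 Human IMR32 cells differentiated 8 days (1 mM dibutyryl cAMP, 2.5 μM BrdU), pre-stimulated 1 h with 90 mM KCl plus compound (~846 pM–17 μM) and 5 μM nitrendipine, Fluo-4 loaded. FLIPR read basal fluorescence 315 s, then 90 mM KCl agonist added and fluorescence recorded 45 s; non-linear regression.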

T1 sequence (Q00975 whole entry): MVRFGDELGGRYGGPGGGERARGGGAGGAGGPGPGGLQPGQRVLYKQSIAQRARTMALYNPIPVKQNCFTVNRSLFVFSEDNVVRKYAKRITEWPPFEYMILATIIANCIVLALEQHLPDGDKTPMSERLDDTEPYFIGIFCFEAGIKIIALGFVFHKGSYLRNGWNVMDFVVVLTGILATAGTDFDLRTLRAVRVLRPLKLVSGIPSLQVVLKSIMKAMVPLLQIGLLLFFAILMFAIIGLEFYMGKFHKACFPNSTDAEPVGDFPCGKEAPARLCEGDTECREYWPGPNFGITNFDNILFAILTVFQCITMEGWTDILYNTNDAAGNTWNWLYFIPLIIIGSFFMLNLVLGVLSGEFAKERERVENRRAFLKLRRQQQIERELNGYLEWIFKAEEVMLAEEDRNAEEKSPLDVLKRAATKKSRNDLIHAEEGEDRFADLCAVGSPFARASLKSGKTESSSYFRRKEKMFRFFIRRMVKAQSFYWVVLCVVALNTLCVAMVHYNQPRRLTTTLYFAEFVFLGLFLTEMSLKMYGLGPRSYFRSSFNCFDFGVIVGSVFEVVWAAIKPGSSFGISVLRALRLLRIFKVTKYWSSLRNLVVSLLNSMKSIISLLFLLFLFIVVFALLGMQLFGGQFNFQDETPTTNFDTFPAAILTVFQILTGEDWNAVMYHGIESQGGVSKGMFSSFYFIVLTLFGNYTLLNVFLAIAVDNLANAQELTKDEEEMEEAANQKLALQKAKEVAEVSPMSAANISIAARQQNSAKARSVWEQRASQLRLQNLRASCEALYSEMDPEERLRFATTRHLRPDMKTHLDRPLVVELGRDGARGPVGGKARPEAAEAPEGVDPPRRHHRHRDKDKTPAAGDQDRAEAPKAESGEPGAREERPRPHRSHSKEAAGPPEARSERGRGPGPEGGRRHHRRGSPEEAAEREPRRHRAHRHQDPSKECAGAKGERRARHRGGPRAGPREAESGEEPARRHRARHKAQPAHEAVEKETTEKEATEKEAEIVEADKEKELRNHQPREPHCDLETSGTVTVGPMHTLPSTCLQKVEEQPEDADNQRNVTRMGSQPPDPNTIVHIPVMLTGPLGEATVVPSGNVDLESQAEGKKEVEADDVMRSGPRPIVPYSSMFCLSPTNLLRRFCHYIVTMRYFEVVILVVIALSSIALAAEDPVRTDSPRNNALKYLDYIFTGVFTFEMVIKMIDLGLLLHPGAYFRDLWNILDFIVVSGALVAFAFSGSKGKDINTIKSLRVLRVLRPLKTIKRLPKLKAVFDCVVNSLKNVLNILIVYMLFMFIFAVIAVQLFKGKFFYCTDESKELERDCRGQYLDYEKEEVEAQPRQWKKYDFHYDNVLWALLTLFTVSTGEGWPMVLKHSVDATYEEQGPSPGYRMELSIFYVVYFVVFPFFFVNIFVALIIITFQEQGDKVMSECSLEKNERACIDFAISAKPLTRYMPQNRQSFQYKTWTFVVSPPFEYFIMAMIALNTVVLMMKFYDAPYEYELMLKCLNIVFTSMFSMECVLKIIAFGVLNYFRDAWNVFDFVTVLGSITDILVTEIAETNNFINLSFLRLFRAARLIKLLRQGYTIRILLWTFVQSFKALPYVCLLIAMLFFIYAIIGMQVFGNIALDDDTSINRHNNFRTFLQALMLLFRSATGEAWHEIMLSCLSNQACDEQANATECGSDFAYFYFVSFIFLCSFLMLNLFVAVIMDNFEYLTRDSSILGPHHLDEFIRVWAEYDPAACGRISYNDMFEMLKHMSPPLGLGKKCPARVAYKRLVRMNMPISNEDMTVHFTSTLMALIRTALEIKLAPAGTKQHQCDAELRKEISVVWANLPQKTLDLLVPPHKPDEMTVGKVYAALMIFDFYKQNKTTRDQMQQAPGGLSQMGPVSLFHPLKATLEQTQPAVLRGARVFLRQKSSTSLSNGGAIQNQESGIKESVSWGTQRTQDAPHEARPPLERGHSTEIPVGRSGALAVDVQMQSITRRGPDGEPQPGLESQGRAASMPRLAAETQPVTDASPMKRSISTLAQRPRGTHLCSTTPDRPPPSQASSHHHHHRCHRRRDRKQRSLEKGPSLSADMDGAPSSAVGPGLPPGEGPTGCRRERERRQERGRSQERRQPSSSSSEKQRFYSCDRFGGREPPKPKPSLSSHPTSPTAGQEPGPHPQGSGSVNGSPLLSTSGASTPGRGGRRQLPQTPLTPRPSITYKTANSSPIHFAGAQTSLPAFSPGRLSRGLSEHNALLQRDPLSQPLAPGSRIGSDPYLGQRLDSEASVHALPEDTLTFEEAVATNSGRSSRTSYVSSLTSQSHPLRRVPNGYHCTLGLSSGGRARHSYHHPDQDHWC

SMILES | IC50
CC(ON=C1CCN(S(=O)(=O)c2cccc(C(F)(F)F)c2)CC1)c1ccccc1 (stereo not drawn) [Example 276, 1-(3-(Trifluoromethyl)phenylsulfonyl)piperidin-4-one O-1-phenylethyl oxime] | ≤ 1000 nM
N#Cc1cccc(C(ON=C2CCN(S(=O)(=O)c3ccc(C#N)nc3)CC2)C2CC2)c1 (stereo not drawn) [Example 278, 5-(4-((3-Cyanophenyl)(cyclopropyl)methoxyimino)piperidin-1-ylsulfonyl)picolinonitrile] | ≤ 1000 nM
N#Cc1cccc(CON=C2CCN(S(=O)(=O)c3ccc(C(F)(F)F)cc3)CC2)c1 [Example 280, 3-((1-(4-(Trifluoromethyl)phenylsulfonyl)piperidin-4-ylideneaminooxy)methyl)benzonitrile] | ≤ 1000 nM
N#Cc1cccc(CON=C2CCN(S(=O)(=O)c3cccc(C#N)c3)CC2)c1 [Example 282, 3-(4-(3-Cyanobenzyloxyimino)piperidin-1-ylsulfonyl)benzonitrile] | ≤ 1000 nM
O=S(=O)(c1cccc(C(F)(F)F)c1)N1CCC(=NOC(c2ccc(F)cc2)c2ccc(F)cc2)CC1 [Example 285, 1-(3-(Trifluoromethyl)phenylsulfonyl)piperidin-4-one O-bis(4-fluorophenyl)methyl oxime] | ≤ 1000 nM
COC(=O)c1cccc(S(=O)(=O)N2CCC(=NOC(c3ccc(F)cc3)c3ccc(F)cc3)CC2)c1 [Example 286, Methyl 3-(4-(bis(4-fluorophenyl)methoxyimino)piperidin-1-ylsulfonyl)benzoate] | ≤ 1000 nM
O=S(=O)(c1ccsc1)N1CCC(=NOC(c2ccc(F)cc2)c2ccc(F)cc2)CC1 [Example 287, 1-(Thiophen-3-ylsulfonyl)piperidin-4-one O-bis(4-fluorophenyl)methyl oxime] | ≤ 1000 nM
O=S(=O)(c1ccccn1)N1CCC(=NOC(c2ccc(F)cc2)c2ccc(F)cc2)CC1 [Example 288, 1-(Pyridin-2-ylsulfonyl)piperidin-4-one O-bis(4-fluorophenyl)methyl oxime] | ≤ 1000 nM
O=S(=O)(c1ccccc1OC(F)(F)F)N1CCC(=NOC(c2ccc(F)cc2)c2ccc(F)cc2)CC1 [Example 289, 1-(2-(Trifluoromethoxy)phenylsulfonyl)piperidin-4-one O-bis(4-fluorophenyl)methyl oxime] | ≤ 1000 nM
N#Cc1cccc(C(CN2CCOCC2)ON=C2CCN(S(=O)(=O)c3ccc(OC(F)(F)F)cc3)CC2)c1 (stereo not drawn) [Example 302, 3-(2-Morpholino-1-(1-(4-(trifluoromethoxy)phenylsulfonyl)piperidin-4-ylideneaminooxy)ethyl)benzonitrile] | ≤ 1000 nM
N#Cc1cccc(C(COc2ccc(F)cc2)ON=C2CCN(S(=O)(=O)c3ccc(OC(F)(F)F)cc3)CC2)c1 (stereo not drawn) [Example 304, 3-(2-(4-Fluorophenoxy)-1-(1-(4-(trifluoromethoxy)phenylsulfonyl)piperidin-4-ylideneaminooxy)ethyl)benzonitrile] | ≤ 1000 nM
O=S(=O)(c1ccc(OC(F)(F)F)cc1)N1CCC(=NOC(c2ccc(F)cc2)C2CC2)CC1 (stereo not drawn) [Example 306, 1-(4-(Trifluoromethoxy)phenylsulfonyl)piperidin-4-one O-cyclopropyl(4-fluorophenyl)methyl oxime] | ≤ 1000 nM
O=S(=O)(c1ccc(OC(F)(F)F)cc1)N1CCC(=NOC(c2cccc(C(F)(F)F)c2)C2CC2)CC1 (stereo not drawn) [Example 307, 1-(4-(Trifluoromethoxy)phenylsulfonyl)piperidin-4-one O-cyclopropyl(3-(trifluoromethyl)phenyl)methyl oxime] | ≤ 1000 nM
O=S(=O)(c1cccc(C(F)(F)F)c1)N1CCC(=NOC2CCCCC2)CC1 [Example 309, 1-(3-(Trifluoromethyl)phenylsulfonyl)piperidin-4-one O-cyclohexyl oxime] | ≤ 1000 nM
CC(C)CCON=C1CCN(S(=O)(=O)c2cccc(C(F)(F)F)c2)CC1 [Example 366, 1-(3-(Trifluoromethyl)phenylsulfonyl)piperidin-4-one O-isopentyl oxime] | ≤ 1000 nM
CCCCC(C)ON=C1CCN(S(=O)(=O)c2cccc(C(F)(F)F)c2)CC1 (stereo not drawn) [Example 367, 1-(3-(Trifluoromethyl)phenylsulfonyl)piperidin-4-one O-hexan-2-yl oxime] | ≤ 1000 nM

Next, values leading:

IC50 | SMILES
≤ 1000 nM | COCC(ON=C1CCN(S(=O)(=O)c2ccc(OC(F)(F)F)cc2)CC1)c1cccc(C#N)c1 (stereo not drawn) [Example 273, 3-(2-Methoxy-1-(1-(4-(trifluoromethoxy)phenylsulfonyl)piperidin-4-ylideneaminooxy)ethyl)benzonitrile]
≤ 1000 nM | N#Cc1cccc(C(ON=C2CCN(S(=O)(=O)c3ccc(NC4CC4)nc3)CC2)C2CC2)c1 (stereo not drawn) [Example 274, 3-(Cyclopropyl(1-(6-(cyclopropylamino)pyridin-3-ylsulfonyl)piperidin-4-ylideneaminooxy)methyl)benzonitrile]
≤ 1000 nM | N#Cc1cccc(C(ON=C2CCN(S(=O)(=O)c3ccc(NC4CCCC4)nc3)CC2)C2CC2)c1 (stereo not drawn) [Example 275, 3-((1-(6-(Cyclopentylamino)pyridin-3-ylsulfonyl)piperidin-4-ylideneaminooxy)(cyclopropyl)methyl)benzonitrile]
≤ 1000 nM | N#Cc1cccc(CON=C2CCN(S(=O)(=O)c3ccc(OCCF)cc3)CC2)c1 [Example 281, 3-((1-(4-(2-Fluoroethoxy)phenylsulfonyl)piperidin-4-ylideneaminooxy)methyl)benzonitrile]
≤ 1000 nM | N#Cc1cccc(S(=O)(=O)N2CCC(=NOCc3cccc(C(F)(F)F)c3)CC2)c1 [Example 284, 3-(4-(3-(Trifluoromethyl)benzyloxyimino)piperidin-1-ylsulfonyl)benzonitrile]
≤ 1000 nM | O=S(=O)(c1cccc(OC(F)(F)F)c1)N1CCC(=NOC(c2ccc(F)cc2)c2ccc(F)cc2)CC1 [Example 290, 1-(3-(Trifluoromethoxy)phenylsulfonyl)piperidin-4-one O-bis(4-fluorophenyl)methyl oxime]
≤ 1000 nM | O=S(=O)(c1cccnc1)N1CCC(=NOC(c2ccc(F)cc2)c2ccc(F)cc2)CC1 [Example 291, 1-(Pyridin-3-ylsulfonyl)piperidin-4-one O-bis(4-fluorophenyl)methyl oxime]
≤ 1000 nM | O=S(=O)(c1cccc(Cl)c1)N1CCC(=NOC(c2ccc(F)cc2)c2ccc(F)cc2)CC1 [Example 292, 1-(3-Chlorophenylsulfonyl)piperidin-4-one O-bis(4-fluorophenyl)methyl oxime]
≤ 1000 nM | O=S(=O)(c1cccc(C(F)(F)F)c1)N1CCC(=NOCCC2CCCCC2)CC1 [Example 294, 1-(3-(Trifluoromethyl)phenylsulfonyl)piperidin-4-one O-2-cyclohexylethyl oxime]
≤ 1000 nM | O=c1cc(CON=C2CCN(S(=O)(=O)c3ccc(OC(F)(F)F)cc3)CC2)ccn1Cc1ccc(F)cc1 [Example 296, 1-(4-Fluorobenzyl)-4-((1-(4-(trifluoromethoxy)phenylsulfonyl)piperidin-4-ylideneaminooxy)methyl)pyridin-2(1H)-one]
≤ 1000 nM | CC(C)OCC(ON=C1CCN(S(=O)(=O)c2ccc(OC(F)(F)F)cc2)CC1)c1cccc(C#N)c1 (stereo not drawn) [Example 303, 3-(2-Isopropoxy-1-(1-(4-(trifluoromethoxy)phenylsulfonyl)piperidin-4-ylideneaminooxy)ethyl)benzonitrile]
≤ 1000 nM | O=S(=O)(c1cccc(C(F)(F)F)c1)N1CCC(=NOCCc2ccccc2)CC1 [Example 310, 1-(3-(Trifluoromethyl)phenylsulfonyl)piperidin-4-one O-phenethyl oxime]
≤ 1000 nM | O=S(=O)(c1ccc(OC(F)(F)F)cc1)N1CCC(=NOCc2ccccc2-c2ccccc2)CC1 [Example 311, 1-(4-(Trifluoromethoxy)phenylsulfonyl)piperidin-4-one O-biphenyl-2-ylmethyl oxime]
≤ 1000 nM | O=S(=O)(c1ccc(OC(F)(F)F)cc1)N1CCC(=NOCc2ncccc2-c2ccccc2)CC1 [Example 313, 1-(4-(Trifluoromethoxy)phenylsulfonyl)piperidin-4-one O-(3-phenylpyridin-2-yl)methyl oxime]
≤ 1000 nM | O=c1ccc(CON=C2CCN(S(=O)(=O)c3ccc(OC(F)(F)F)cc3)CC2)cn1-c1ccc(F)cc1 [Example 314, 1-(4-Fluorophenyl)-5-((1-(4-(trifluoromethoxy)phenylsulfonyl)piperidin-4-ylideneaminooxy)methyl)pyridin-2(1H)-one]
≤ 1000 nM | N#Cc1ccc(-n2cc(CON=C3CCN(S(=O)(=O)c4ccc(OC(F)(F)F)cc4)CC3)ccc2=O)cc1 [Example 315, 4-(2-oxo-5-((1-(4-(trifluoromethoxy)phenylsulfonyl)piperidin-4-ylideneaminooxy)methyl)pyridin-1(2H)-yl)benzonitrile]
≤ 1000 nM | O=S(=O)(c1ccc(NC2CC2)nc1)N1CCC(=NOCc2cccc(C(F)(F)F)c2)CC1 [Example 321, 1-(6-Cyclopropylaminopyridine-3-sulfonyl)piperidin-4-one O-(3-trifluoromethylbenzyl)oxime]
≤ 1000 nM | O=C(CN1CCC(=NOCc2cccc(C(F)(F)F)c2)CC1)NCc1cc(C(F)(F)F)cc(C(F)(F)F)c1 [Example 329, N-(3,5-Bis(trifluoromethyl)benzyl)-2-(4-(3-(trifluoromethyl)benzyloxyimino)piperidin-1-yl)acetamide]
≤ 1000 nM | O=S(=O)(c1cccc(C(F)(F)F)c1)N1CCC(=NOC/C=C/c2ccccc2)CC1 [Example 368, 1-(3-(Trifluoromethyl)phenylsulfonyl)piperidin-4-one O-cinnamyl oxime]

Same assay, conditions: calcium mobilization in vitro assay, N-type calcium channel blockers

IC50 | SMILES
1100 nM | O=C(CN1CCC(=NOC(c2ccc(F)cc2)c2ccc(F)cc2)CC1)Nc1cc(C(F)(F)F)cc(C(F)(F)F)c1 [Example 328, 2-(4-(Bis(4-fluorophenyl)methoxyimino)piperidin-1-yl)-N-(3,5-bis(trifluoromethyl)phenyl)acetamide]
